Converted amounts (≈) assume the structure as drawn.
What was measured:
rGABARAP^Y174A [1] = molecular target: T1, rGABARAP^Y174A (Frankliniella occidentalis, UniProt A0A6J1T1Q2); assay: MST binding to rGABARAP mutant; details: for Kd: read-out: Kd value, MST
Experimental: (§1) Interaction between ME and rGABARAP. A Nano Temper Monolith NT.115 MST system (Nano Temper, Munich, Germany) was used to assess the binding affinities between the target compounds and rGABARAP according to the published procedures (Zan, et al. (2020) Journal of Agricultural and Food Chemistry 68:6280-6285). Spinosyn A was used as a chemical positive control. Spinosyn A (≥1 nM) can trigger a change of the Cl^− current of insect neuron GABAAR, which is considered to be an insecticidal action mechanism of spinosyn A (Watson (2001) Pesticide Biochemistry and Physiology 71:20-28). Ovalbumin (OVA) (Sangon Biotech, Shanghai, China) is a control protein consisting of 385 amino acid residues. The interaction between OVA and ME was used as a protein control experiment (Huntington, et al. (1995) Protein Science 4:613-621).
(§2) Preparation of rGABARAP Mutant and Interaction Between ME and rGABARAP Mutant. […] DNAman was used to convert the nucleic acid sequence into an amino acid sequence and find the Y174 site. Y174 was mutated to A174. The rGABARAP mutant gene loaded into the pMCSG19 vector and the His tags at both ends of the sequence were retained to construct a prokaryotic expression plasmid. The carrier contained a maltose binding protein (MBP) tag that was not cut for verification. However, MBP and ME were used as treatment controls. The mutant plasmid was constructed in Sangon Biotech (Shanghai, China). The protein expression, purification, and desalting procedures of rGABARAP^Y174A mutant and rGABARAP were the same. Subsequently, the binding kinetics of ME and rGABARAP^Y174A were tested by MST and ITC.

[2] = molecular target: T2, recombinant gamma-aminobutyric acid receptor-associated protein (rGABARAP) (Frankliniella occidentalis, UniProt A0A6J1T1Q2); assay: Isothermal titration calorimetry (ITC) binding to rGABARAP; details: 25° C., pH 7.4
T2 sequence (A0A6J1T1Q2 1-118): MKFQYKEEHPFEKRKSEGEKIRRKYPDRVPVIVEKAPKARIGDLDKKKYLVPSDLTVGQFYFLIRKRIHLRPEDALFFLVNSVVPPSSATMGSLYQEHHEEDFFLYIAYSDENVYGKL
Experimental: (§3) Preparation of recombinant GABARAP (rGABARAP) protein. RNA was extracted from F. occidentalis and cDNA was then synthesized. GABARAP (GenBank accession No. LOC113211372) was obtained after PCR amplification (Stafford-Banks, et al. (2014) Plos One 9:e94447).
(§4) The isothermal titration thermal binding measurements were performed with an ITC-200 calorimeter (GE Healthcare, Boston, MA) at 25° C. in a buffer containing 50 mM Tris-HCl and 100 mM NaCl (pH 7.4). […] The MicroCal Origin 7.0 software system was used for data processing. The first run was a pre-run and was excluded from the final data. The amount of protein in the sample pool was constant. […] The experimental bimolecular interaction data from the 18 drops were used to calculate the dissociation constant. The dissociation constant […] was calculated as 1/K (Li, et al. (2018) RSC Advances 8:18952-18958).

[3] = molecular target: T2, recombinant gamma-aminobutyric acid receptor-associated protein (rGABARAP); assay: Microscale thermophoresis (MST) binding to rGABARAP
Description: as §3, §1

rGABARAP^Y174A [4] = molecular target: T1, rGABARAP^Y174A; assay: ITC binding to rGABARAP mutant
Experimental: as §4, §2

[5] = test system: Frankliniella occidentalis second-instar nymphs; assay: whole plant or invertebrate; details: 24 h
Experimental: Chemicals. […] These monoterpenes and the positive control spinosyn A (Bosite Technology, Chongqing, China) were dissolved in acetone (10 g/L).
Insects. F. occidentalis Thrips were provided by the Institute of Vegetables and Flowers, Chinese Academy of Agricultural Sciences (Beijing, China), and kept in a box (19 cm×14 cm×20 cm) at 27±1° C., humidity of 50%-60% and a photoperiod of 16:8 h (light:dark). The population was established with sword beans (Canavalia gladiata). Second-instar nymphs with the same growth were tested.
Insect Assays. […] The leaf blade (2 cm×3 cm) was immersed in the solution for 10 s in the test solution, and then air-dried until there were no water drops on the surface. The concentrations were the same as those used in the insecticide-impregnated membrane method. After the chemical film had been formed for 2 h, the infusion leaves were placed in the bottles. The second-instar nymphs were picked with a soft writing brush to make up ten insects per bottle. The bottles were sealed with plastic wrap. 1% Triton X-100 (m/V) aqueous solution as a blank control. Each treatment was repeated four times. The bottles were placed under temperature of 27±1° C., humidity of 50%-60% and photoperiod of 16:8 h (light:dark). […] The insects were touched with a soft brush and numbers of dead and living Thrips were recorded, followed by calculation of the mortality rates.

[6] = test system: Megalurothrips usitatus (flower Thrips); details: adult M. usitatus, 24 hours of fumigation in 1-L flasks
[7] = test system: Thrips Megalurothrips usitatus; details: 24-hour fumigation assay, 0-0.192 μL/dm^3
[8] = test system: Drosophila melanogaster (fruit fly); assay: Median lethal concentration fumigation test, fruit fly; format: in vivo; details: mortality after 280 minutes
adult T. palmi = details: cited from earlier work
[9] = T 25 °C; cited from earlier work
[10] = rGABARAP, read-out: Kd value, MST

T1 sequence (A0A6J1T1Q2 entry or part of it, stated change not applied): as the sequence (A0A6J1T1Q2 1-118) above

## COc1cccc2c1cc([N+](=O)[O-])c1c(C(=O)O)cc3c(c12)OCO3 [Aristolochic acid A, 3,4-methylenedioxy-8-methoxy-10-nitro-1-phenanthrenecarboxylicacid, reference compound]
rGABARAP^Y174A [1]
  Kd: 158 ± 82 µM
[2]
  Kd value, ITC: no binding
[3]
  Kd: 146 µM
rGABARAP^Y174A [4]
  Kd value, ITC: No binding
[5]
  LC50: 40 µg/mL (≈ 117 µM)

## C=CCc1ccc(OC)c(OC)c1 [Eugenol methyl ether, 1-(3,4-dimethoxyphenyl) -2-propene]
[6]
  activity against flower Thrips in preliminary screening: exhibit insecticidal activity
rGABARAP^Y174A [1]
  Kd value, MST: loss of binding
[2]
  Kd: 4.22 µM
[3]; [10]
  Kd: 1.3 µM
rGABARAP^Y174A [4]
  Kd value, ITC: neither MBP nor ME interacted

## C/C=C/c1ccc(OC)cc1 [Anethole, 1-(4-methoxyphenyl) -1-propen]
rGABARAP^Y174A [1]
  Kd: 41 ± 36.4 µM
[2]
  Kd: 4.49 µM
[3]; [10]
  Kd: 1.61 µM
rGABARAP^Y174A [4]
  Kd value, ITC: No binding

## CC(C)=C1CC[C@H](C)CC1=O [(−)-Pulegone]
[7]
  LC50: 0.119 μL/dm^3
[8]
  LC50 (fiducial limits): 0.000106 µg/mL (≈ 0.000696 µM)
  LC90 (fiducial limits): 0.000359 µg/mL (≈ 0.00236 µM)
Adult T. palmi
  LC50, fumigation toxicity: 9.5 µg/mL (≈ 62.4 µM)
[9]
  Vp (Pa)/T (° C.): 16.3/25 Pa
[3]; [10]
  Kd: 2.53 µM
